Results as given in patent US20230074252A1, “DOSAGES AND METHODS FOR TREATING PULMONARY ARTERIAL HYPERTENSION WITH RODATRISTAT” (Altavant Sciences GmbH, priority 2020, published 2023).
“Also recorded” adds a separate entry of the source. Read-outs that look alike come from different tables or passages of the source.

How the values were obtained:
[1] = target: CYP3A4/5 (Homo sapiens, UniProt P08684); assay: Direct and time-dependent CYP inhibition, pooled human liver microsomes; assay type: in vitro ADME
Description: “mM^”=millimolar. CYP induction was evaluated using cultured human hepatocytes (from 3 donors) treated once daily for 3 days with RE/R concentrations to […].
The competitive inhibition of specific CYP isoforms was investigated for RVT-1201 and KAR5417 in human liver microsomes (HLM) (XT155056). Of the […] evaluated in vitro (CYP1A2, CYP2B6, CYP2C8, CYP2C9, CYP2D6, CYP3A4, CYP3A5), RVT-1201 IC50 estimates were determined for CYP2B6, CYP2C8 and CYP3A4 only. […] For each IC50 estimate, substrate concentration and Km were used to estimate RVT-1201 and KAR5417 Ki.

[2] = system: CYP isoforms; assay: Time-dependent CYP inhibition (overall statement); assay type: in vitro ADME, human
[3] = target: T1, BCRP (Homo sapiens, UniProt Q9UNQ0); assay: In vitro transporter substrate assessment; assay type: in vitro ADME
T1 sequence (Q9UNQ0 1-655): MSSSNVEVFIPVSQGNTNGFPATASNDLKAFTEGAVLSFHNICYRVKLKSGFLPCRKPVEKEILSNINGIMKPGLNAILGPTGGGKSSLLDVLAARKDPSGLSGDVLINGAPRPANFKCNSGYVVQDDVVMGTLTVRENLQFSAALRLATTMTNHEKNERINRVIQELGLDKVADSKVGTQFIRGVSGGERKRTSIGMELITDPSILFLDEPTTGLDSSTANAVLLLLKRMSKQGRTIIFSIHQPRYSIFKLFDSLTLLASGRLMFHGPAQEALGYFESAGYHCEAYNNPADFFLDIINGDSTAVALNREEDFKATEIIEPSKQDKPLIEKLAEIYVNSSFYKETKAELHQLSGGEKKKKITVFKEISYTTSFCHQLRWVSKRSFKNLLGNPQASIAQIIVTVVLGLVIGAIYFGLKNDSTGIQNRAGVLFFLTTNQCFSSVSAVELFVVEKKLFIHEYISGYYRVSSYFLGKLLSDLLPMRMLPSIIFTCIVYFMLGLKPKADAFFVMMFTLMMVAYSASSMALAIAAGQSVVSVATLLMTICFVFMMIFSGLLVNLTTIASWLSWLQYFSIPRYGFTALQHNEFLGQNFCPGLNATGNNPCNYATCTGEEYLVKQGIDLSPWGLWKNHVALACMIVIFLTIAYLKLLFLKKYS
From the text: (§1) Consequently, the elimination of rodatristat into bile may be impacted by co-administration with agents that are BCRP inhibitors.

[4] = target: T2, OATP1B3 (Homo sapiens, UniProt Q9NPD5); assay: In vitro transporter substrate assessment; assay type: in vitro ADME
T2 construct: expressed in transfected cells; host or cells: HEK293
T2 sequence (Q9NPD5 1-702): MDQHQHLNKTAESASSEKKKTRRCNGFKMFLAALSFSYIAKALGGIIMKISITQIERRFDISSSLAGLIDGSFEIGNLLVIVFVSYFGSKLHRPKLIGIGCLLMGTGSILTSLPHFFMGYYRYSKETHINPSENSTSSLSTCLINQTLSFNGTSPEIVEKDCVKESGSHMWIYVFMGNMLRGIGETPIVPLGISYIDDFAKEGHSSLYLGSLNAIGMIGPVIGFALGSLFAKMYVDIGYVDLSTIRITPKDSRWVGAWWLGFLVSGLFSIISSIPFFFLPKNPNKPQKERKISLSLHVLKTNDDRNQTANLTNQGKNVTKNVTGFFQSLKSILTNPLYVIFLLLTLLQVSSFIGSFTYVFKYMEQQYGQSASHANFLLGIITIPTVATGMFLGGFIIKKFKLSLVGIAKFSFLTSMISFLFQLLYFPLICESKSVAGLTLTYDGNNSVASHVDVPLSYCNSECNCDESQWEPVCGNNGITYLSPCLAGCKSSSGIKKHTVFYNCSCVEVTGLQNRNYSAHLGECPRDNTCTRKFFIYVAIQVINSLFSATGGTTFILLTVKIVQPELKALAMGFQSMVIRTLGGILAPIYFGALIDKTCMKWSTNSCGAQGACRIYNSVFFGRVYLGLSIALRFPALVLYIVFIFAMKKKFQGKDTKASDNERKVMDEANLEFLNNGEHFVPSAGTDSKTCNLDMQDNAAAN
From the text: as §1

[5] = Plasma protein binding; assay type: in vitro ADME, human; details: for fraction unbound: human, plasma, read-out: Plasma protein binding (fraction bound) (converted)
From the text: This analysis is typically based on non-protein bound drug levels in plasma. Values for plasma protein binding (fraction bound) of rodatristat ethyl and rodatristat were 0.995 and 0.991, respectively.
Calculation of Cmax, u, portal uses plasma Cmax, fraction of an oral dose absorbed (Fa) and measured unbound fraction in blood. For rodatristat, experimentally derived values were used for Fa determined in a rat 14C study (20%) and in vitro binding to human plasma (99.1%) and blood:plasma distribution (RB, 0.72). Walsky et al proposed a threshold where the ratio of Cmax, u, portal/Ki of <0.1 is associated with low risk. […] In the rat, the RE:R is ˜3-fold higher in portal blood compared to the periphery.

[6] = predicted @ 600 mg BID, testosterone

CYP3A4/5, sequence (P08684 2-503): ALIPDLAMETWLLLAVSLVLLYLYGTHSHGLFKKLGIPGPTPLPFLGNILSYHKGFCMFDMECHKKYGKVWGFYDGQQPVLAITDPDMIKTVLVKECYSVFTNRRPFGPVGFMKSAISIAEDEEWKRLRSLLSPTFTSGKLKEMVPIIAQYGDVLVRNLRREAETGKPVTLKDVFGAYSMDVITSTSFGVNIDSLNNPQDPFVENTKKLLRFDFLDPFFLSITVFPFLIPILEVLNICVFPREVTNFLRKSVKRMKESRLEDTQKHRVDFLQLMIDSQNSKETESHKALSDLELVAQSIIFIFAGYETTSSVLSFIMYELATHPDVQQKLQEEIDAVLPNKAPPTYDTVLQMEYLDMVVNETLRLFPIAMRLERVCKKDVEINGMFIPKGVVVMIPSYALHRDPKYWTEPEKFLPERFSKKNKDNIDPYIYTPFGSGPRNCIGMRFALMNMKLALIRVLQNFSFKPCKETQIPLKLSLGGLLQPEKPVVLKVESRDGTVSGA

Row | SMILES | IC50 ([1]; human, pooled human liver microsomes, probe midazolam (1′ hydroxylation), midazolam 1′ hydroxylation, read-out: In vitro IC50, direct inhibition, CYP3A4) | IC50 ([1]; human, pooled human liver microsomes, probe testosterone (6β hydroxylation), testosterone 6β hydroxylation, read-out: In vitro IC50, direct inhibition, CYP3A4 (T)) | Calculated R1 Value, CYP3A4 (T) [1, 6] | R1gut, CYP3A4 (T) [1, 6] | Time-dependent inhibition of CYP isoforms [2] | In vitro substrate? BCRP [3] | In vitro substrate? OATP1B3 [4] | fraction unbound [5] | inhibition at 30 µM ([1]; human, pooled human liver microsomes, 30 μM, range given across CYPs 2B6, 2C9 and 3A4/5) | IC50 ([1]; human, pooled human liver microsomes, probe substrate not stated, read-out: IC50, CYP3A4/5) | Time-dependent inhibition of CYP isoforms ([2]; listed as rodatristat) | Accumulation by OATP1B3 uptake transporter ([4]; 3 μM) | In vitro binding to human plasma [5]
1 | CCOC(=O)[C@@H]1CC2(CCN(c3cc(O[C@H](c4ccc(Cl)cc4-c4ccccc4)C(F)(F)F)nc(N)n3)CC2)CN1 [Rodatristat ethyl, (S)-ethyl 8-(2-amino-6-((R)-1-(5-chloro-[1,1′-biphenyl]-2-yl)-2,2,2-trifluoroethoxy)pyrimidin-4-yl)-2,8-diazaspiro[4.5]decane-3-carboxylate] | 13 µM | 23 µM | <1.02 | R1gut = 355 | not time-dependent CYP inhibitors | not a substrate; also recorded: not likely | not a substrate and No | 0.005 |  |  |  |  | 
2 | Nc1nc(O[C@H](c2ccc(Cl)cc2-c2ccccc2)C(F)(F)F)cc(N2CCC3(CC2)CN[C@H](C(=O)O)C3)n1 [Rodatristat, (S)-8-(2-amino-6-((R)-1-(5-chloro-[1,1′-biphenyl]-2-yl)-2,2,2-trifluoroeth-oxy)pyrimidin-4-yl)-2,8-diazaspiro[4.5]decane-3-carboxylic acid] |  |  |  |  |  | potential substrate | is an in vitro substrate and Yes | 0.009 | 27 to 45% | > 30 µM | not time-dependent CYP inhibitors | 9.28 fold | 99.1%
